Results taken from US11548849B2, “Alcohol derivatives as KV7 potassium channel openers” (H. Lundbeck A/S, priority 2019, dated 2023).

What was measured:
hKv7.2/hKv7.3 [1] = target: T1, hKv7.2/hKv7.3 (Homo sapiens, UniProt O43525+O43526); assay: Thallium influx assay for potassium channel activation; type: cell-based; conditions: HEK-hKv7.2/hKv7.3 cells; FLIPR Potassium Assay kit; AUC readout normalized to a reference compound
T1 construct: P2A self-cleaving peptide (between Kv7.3 and Kv7.2; the remnant would stay on the upstream protein) (C); expressed in transfected cells
Description: (§1) A synthesized cDNA fragment encoding human Kv7.3 and human Kv7.2 separated by a P2A sequence was inserted into the pcDNA5/FRT/TO vector using the BamHI and XhoI restriction sites. The construct was then transfected into HEK Flp-In 293 cells using Lipofectamine2000. The transfected cells were grown for 48 hours in DMEM containing 10% (v/v) FBS and 1% PenStrep and subsequently maintained under selection in DMEM containing 10% (v/v) FBS, 1% PenStrep and 200 ug/mL Hygromycin B at 37° C. in a humidified atmosphere of 5% CO2.
The thallium influx assay for potassium channel activation was performed analogously to a published procedure (C. D. Weaver, et al., J Biomol Screen 2004, 9, 671-677) using the FLIPR Potassium Assay kit (Molecular Devices). HEK-hKv7.2/hKv7.3 cells were plated onto 96-well, black-walled, clear-bottomed culture plates (Corning, Acton, Mass., USA) at a density of 80,000 cells/well (100 μl/well) if the cells were assayed the following day, or 40,000 cells/well (100 μl/well) if the cells were assayed two days after seeding.
On the assay day, the medium was removed after which 50 uL/well of test compound diluted to 2× final concentration in HBSS containing 20 mM HEPES, and 50 uL/well of 2× dye load buffer were added. The cells were then incubated for 60 min at room temperature in the dark. Chloride-free stimulation buffer containing Tl^+ and K^+ at 5× final concentration (5× concentration: 5 mM in both cases) and test compound at 1× final concentration, were prepared during the incubation. The cells were then assayed in a FDSS7000EX Functional Drug Screening System (Hamamatsu). Following 60 sec of baseline fluorescence signal reading at 0.1 Hz, and 10 sec at 1 Hz, 25 uL/well of stimulation buffer were added and the fluorescence continuously measured for 50 sec at 1 Hz followed, by 4 min at 0.1 Hz. Compound effect was quantified using AUC as readout and normalized to a reference compound, which was included on each plate.

hKv7.2/hKv7.3 [2] = target: T1, hKv7.2/hKv7.3; assay: Automated whole cell patch-clamp functional test of HEK-hKv7.2/hKv7.3 cell line; type: cell-based; conditions: stable HEK-hKv7.2/hKv7.3 cell line
Description: as §1

| SMILES | EC50 (hKv7.2/hKv7.3 [1]) | effect on Kv7-current (hKv7.2/hKv7.3 [2]) |
| --- | --- | --- |
| O=C(CC1(O)CC(F)(F)C1)N[C@@H](COC1CC1)c1cccc(OC(F)(F)F)c1 [Example 28, (R)—N-(2-cyclopropoxy-1-(3-(trifluoromethoxy)phenyl)ethyl)-2-(3,3-difluoro-1-hydroxycyclobutyl)acetamide] | 3200 nM |  |
| O=C(CC1(O)CC(F)(F)C1)N[C@@H](COC1CC1)c1cccc(OC(F)F)c1 [Example 29, (R)—N-(2-cyclopropoxy-1-(3-(difluoromethoxy)phenyl)ethyl)-2-(3,3-difluoro-1-hydroxycyclobutyl)acetamide] | 5400 nM |  |
| O=C(CC1(O)CC(F)(F)C1)N[C@@H](COC(F)(F)F)c1cccc(OC(F)F)c1 [Example 30, (R)-2-(3,3-difluoro-1-hydroxycyclobutyl)-N-(1-(3-(difluoromethoxy)phenyl)-2-(trifluoromethoxy)ethyl)acetamide] | 1800 nM |  |
| CCC[C@H](NC(=O)CC1(O)CC(F)(F)C1)c1cccc(OC(F)F)c1 [Example 31, (S)-2-(3,3-difluoro-1-hydroxycyclobutyl)-N-(1-(3-(difluoromethoxy)phenyl)butyl)acetamide] | 2600 nM |  |
| O=C(CC1(O)CC(F)(F)C1)N[C@@H](CCC(F)F)c1cccc(OC(F)F)c1 [Example 32, (S)-2-(3,3-difluoro-1-hydroxycyclobutyl)-N-(1-(3-(difluoromethoxy)phenyl)-4,4-difluorobutyl)acetamide] | 2500 nM |  |
| CC[C@H](NC(=O)CC1(O)CC(F)(F)C1)c1cccc(OC(F)(F)F)c1 [Example 33, (S)-2-(3,3-difluoro-1-hydroxycyclobutyl)-N-(1-(3-(trifluoromethoxy)-phenyl)propy) acetamide] | 2100 nM |  |
| N#CC[C@H](NC(=O)CC1(O)CC(F)(F)C1)c1cccc(OC(F)(F)F)c1 [Example 34, (S)—N-(2-cyano-1-(3-(trifluoromethoxy)phenyl)ethyl)-2-(3,3-difluoro-1-hydroxycyclobutyl)acetamide] | 2500 nM |  |
| O=C(CC1(O)CC(F)(F)C1)N[C@@H](CC(F)F)c1cccc(OC(F)(F)F)c1 [Example 35, (S)—N-(3,3-difluoro-1-(3-(trifluoromethoxy)phenyl)propyl)-2-(3,3-difluoro-1-hydroxycyclobutyl)acetamide] | 3500 nM |  |
| CCOC(=O)Nc1ccc(NCc2ccc(F)cc2)cc1N [Retigabine, N-(2-amino-4-(4-fluorobenzylamino)-phenyl) carbamic acid ethyl ester] |  | potentiated |
| O=C1c2ccccc2C(Cc2ccncc2)(Cc2ccncc2)c2ccccc21 [XE991] |  | sensitive |
